Results on two compounds are retold here after paper PMC8566089 (Bioorganic Chemistry, 2021).

SMILES strings stand for the structures. Where two headings read alike, the source gives them in different places.

For data set [1], the system named is HCT116 (colon) cancer cell line. Particulars: read-out: IC50 ± SE, HCT116; cited from earlier work.
Data set [2] deals with MCF7 (breast) cancer cell line. The following applies: read-out: IC50 ± SE, MCF7; cited from earlier work.
In data set [3] the target is T1, VEGFR-2 (Homo sapiens, UniProt P35968). As to the kind of experiment: VEGFR-2 Western blot in HCT116. The class given is cell-based. For orientation: In western blotting, separated proteins are transferred to a membrane and probed.
The next data set addresses T2, COX-1 (Ovis aries, UniProt P05979).
T2 sequence (P05979 25-600): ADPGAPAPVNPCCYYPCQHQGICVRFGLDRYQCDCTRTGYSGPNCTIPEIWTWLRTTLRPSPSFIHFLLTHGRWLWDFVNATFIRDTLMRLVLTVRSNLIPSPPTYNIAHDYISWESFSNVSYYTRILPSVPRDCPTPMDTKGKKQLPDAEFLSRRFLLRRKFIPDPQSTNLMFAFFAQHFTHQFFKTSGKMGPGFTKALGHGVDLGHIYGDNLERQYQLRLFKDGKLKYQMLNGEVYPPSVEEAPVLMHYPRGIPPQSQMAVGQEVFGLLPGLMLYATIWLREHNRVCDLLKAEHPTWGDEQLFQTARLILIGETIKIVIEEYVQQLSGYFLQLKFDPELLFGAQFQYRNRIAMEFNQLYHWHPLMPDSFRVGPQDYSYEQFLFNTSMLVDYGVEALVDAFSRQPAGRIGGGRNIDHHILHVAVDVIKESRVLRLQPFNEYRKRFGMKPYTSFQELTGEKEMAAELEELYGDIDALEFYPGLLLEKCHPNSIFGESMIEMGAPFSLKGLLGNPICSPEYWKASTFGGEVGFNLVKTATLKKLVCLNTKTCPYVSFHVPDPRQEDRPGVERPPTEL
Put plainly: COX-1 inhibitor screening kit. The class given is biochemical.

Data set [4] deals with A431 (squamous skin) cancer cell line. As to the kind of experiment: MTT antiproliferative assay, A431. The class given is cell-based. Background: Tetrazolium dyes change colour on reduction, which living cells bring about.
The test system of data set [5] is MCF7 (breast) cancer cell line. Put plainly: MTT antiproliferative assay, MCF7. It counts as cell-based.
Data set [6] has as its target T3, EGFR (Homo sapiens, UniProt P00533). As to the kind of experiment: EGFR Western blot in HCT116. The class given is cell-based.
Data set [7] deals with T3, EGFR. Put plainly: EGFR Western blot in MCF7. The class given is cell-based.
Data set [8] has as its system HCT116 (colon cancer cell line). Put plainly: PI-flow cytometry cell cycle analysis. The class given is cell-based. For orientation: Flow cytometry measures light scatter and fluorescence of single cells or particles in a stream.
Data set [9] shares this test system. As to the kind of experiment: Annexin V-FITC apoptosis/necrosis study. The class given is cell-based. The following applies: at MTT-IC50 of the agent.
Data set [10] concerns HCT116 (colon) cancer cell line. Put plainly: MTT antiproliferative assay, HCT116. It counts as cell-based.
In data set [11] the test system is RPE1 (normal human immortalized retinal pigment epithelial cell line). As to the kind of experiment: MTT assay against normal RPE1 cells. The class given is cell-based. Particulars: RPE-1, read-out: IC50 ± SE, RPE1.
Data set [12] concerns SARS-CoV-2 (hCoV-19/Egypt/NRC-03/2020). Particulars: SARS-CoV-2 / VERO-E6.
The target of data set [13] is T1, VEGFR-2. As to the kind of experiment: VEGFR-2 Western blot in MCF7. It counts as cell-based.
The target of another data set is T4, COX-2 (Homo sapiens, UniProt P35354).
T4 sequence (P35354 18-604): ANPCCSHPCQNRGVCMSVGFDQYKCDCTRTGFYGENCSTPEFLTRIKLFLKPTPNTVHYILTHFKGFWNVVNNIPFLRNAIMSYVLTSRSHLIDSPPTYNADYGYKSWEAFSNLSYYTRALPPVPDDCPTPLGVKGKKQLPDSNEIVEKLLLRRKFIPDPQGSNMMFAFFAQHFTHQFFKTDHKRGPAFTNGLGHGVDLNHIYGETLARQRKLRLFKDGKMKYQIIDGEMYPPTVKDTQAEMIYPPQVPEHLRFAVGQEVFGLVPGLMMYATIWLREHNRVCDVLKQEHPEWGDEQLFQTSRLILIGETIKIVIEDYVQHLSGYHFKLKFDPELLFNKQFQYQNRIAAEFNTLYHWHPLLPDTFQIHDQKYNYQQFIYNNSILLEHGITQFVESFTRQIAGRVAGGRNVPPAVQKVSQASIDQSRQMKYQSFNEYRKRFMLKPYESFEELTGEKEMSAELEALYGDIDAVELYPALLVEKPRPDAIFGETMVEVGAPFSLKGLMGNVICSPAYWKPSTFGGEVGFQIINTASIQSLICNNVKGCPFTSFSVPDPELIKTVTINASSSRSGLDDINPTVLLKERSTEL
Put plainly: COX-2 inhibitor screening kit. It counts as biochemical.

T1 sequence (P35968 20-1356): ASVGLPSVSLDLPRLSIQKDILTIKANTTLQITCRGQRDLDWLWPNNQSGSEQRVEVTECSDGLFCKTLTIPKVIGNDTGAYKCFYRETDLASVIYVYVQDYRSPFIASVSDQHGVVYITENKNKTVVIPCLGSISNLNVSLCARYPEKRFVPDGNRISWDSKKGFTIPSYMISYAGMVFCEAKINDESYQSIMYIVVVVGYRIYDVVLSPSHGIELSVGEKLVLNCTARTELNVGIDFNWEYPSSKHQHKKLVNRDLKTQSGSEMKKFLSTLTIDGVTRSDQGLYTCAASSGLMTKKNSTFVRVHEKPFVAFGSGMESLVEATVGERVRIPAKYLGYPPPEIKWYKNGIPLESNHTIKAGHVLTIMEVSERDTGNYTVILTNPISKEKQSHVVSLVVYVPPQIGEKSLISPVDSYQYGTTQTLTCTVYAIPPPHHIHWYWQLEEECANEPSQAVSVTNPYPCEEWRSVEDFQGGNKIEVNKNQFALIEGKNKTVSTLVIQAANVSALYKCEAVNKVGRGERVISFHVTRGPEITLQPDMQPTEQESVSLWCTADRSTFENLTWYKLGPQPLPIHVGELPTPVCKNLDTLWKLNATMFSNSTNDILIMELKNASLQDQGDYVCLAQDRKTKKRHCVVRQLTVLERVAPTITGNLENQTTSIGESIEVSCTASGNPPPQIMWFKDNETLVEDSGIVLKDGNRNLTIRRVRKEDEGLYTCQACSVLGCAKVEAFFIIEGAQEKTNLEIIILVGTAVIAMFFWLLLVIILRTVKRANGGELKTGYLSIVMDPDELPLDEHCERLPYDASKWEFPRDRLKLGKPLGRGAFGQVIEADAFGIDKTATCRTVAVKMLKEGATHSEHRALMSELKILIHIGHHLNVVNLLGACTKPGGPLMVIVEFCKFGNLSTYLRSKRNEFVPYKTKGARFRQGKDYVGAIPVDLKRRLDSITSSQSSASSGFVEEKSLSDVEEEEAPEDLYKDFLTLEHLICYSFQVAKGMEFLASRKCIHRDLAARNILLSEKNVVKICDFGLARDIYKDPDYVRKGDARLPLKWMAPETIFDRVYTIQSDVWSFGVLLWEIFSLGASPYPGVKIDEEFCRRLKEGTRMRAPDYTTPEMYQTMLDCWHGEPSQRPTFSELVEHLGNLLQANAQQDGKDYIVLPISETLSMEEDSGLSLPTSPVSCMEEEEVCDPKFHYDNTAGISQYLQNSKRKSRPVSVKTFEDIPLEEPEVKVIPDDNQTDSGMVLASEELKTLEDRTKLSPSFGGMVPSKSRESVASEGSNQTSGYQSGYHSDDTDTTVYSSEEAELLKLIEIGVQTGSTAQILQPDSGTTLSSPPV
T3 sequence (P00533 25-1210): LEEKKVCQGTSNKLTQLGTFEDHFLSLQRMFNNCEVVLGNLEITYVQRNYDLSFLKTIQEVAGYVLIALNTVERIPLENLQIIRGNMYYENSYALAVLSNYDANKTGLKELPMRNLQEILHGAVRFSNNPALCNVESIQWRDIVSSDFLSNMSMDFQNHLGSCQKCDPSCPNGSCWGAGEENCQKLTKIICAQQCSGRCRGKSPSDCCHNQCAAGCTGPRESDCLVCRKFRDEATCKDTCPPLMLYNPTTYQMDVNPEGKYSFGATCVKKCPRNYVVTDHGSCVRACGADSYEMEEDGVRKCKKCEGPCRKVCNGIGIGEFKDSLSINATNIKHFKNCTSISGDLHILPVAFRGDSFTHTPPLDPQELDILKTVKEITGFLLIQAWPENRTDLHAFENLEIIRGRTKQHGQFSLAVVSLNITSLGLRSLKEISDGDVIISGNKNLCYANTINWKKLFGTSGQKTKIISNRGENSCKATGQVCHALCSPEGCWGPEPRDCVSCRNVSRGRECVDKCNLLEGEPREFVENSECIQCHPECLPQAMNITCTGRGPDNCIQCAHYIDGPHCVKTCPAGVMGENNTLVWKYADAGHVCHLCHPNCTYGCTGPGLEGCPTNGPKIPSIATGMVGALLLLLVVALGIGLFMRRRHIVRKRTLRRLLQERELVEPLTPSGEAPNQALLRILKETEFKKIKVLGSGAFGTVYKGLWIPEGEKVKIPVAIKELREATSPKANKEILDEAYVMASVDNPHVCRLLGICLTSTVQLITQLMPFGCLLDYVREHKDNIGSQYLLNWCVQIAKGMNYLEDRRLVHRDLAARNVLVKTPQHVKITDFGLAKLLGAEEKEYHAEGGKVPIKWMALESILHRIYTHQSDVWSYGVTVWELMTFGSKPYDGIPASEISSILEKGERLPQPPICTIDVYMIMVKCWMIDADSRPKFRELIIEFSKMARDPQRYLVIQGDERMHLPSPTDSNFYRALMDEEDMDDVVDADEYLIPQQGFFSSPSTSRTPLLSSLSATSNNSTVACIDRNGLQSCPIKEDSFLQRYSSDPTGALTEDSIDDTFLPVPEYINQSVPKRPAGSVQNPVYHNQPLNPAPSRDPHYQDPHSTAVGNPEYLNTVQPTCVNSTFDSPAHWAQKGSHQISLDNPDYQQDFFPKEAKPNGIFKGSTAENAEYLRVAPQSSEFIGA

`COc1cc(/C=C/C(=O)CC(=O)/C=C/c2ccc(O)c(OC)c2)ccc1O` [Cur, curcumin]: the IC50 (commonly the midpoint of a concentration-inhibition curve) in data set [1] is 38.2 ± 2.36 µM; in data set [2] it was 16 ± 2.04 µM.
Take `CC(=O)Oc1ccccc1C(=O)N1C/C(=C\c2ccc(Cl)cc2)C(=O)/C(=C/c2ccc(Cl)cc2)C1` [Compound 5c, 2-[3,5-Bis((E)-4-chlorobenzylidene)-4-oxopiperidine-1-carbonyl]phenyl acetate]: the “VEGFR2 HCT116 % Inhibition” value on VEGFR-2 [3] (Western blot at MTT-IC50) was 73.3%. The “VEGFR2 HCT116 RQ (relative quantification)” value at VEGFR-2 [3] (Western blot at MTT-IC50, control RQ 3.817) amounted to 1.02. This compound also had an IC50 at COX-1 of 0.271 µM. Also, in data set [4] (Homo sapiens, A-431, 72 h, read-out: IC50 ± SE, A431), the half-maximal inhibitory concentration (IC50) came out at 1.21 ± 0.11 µM. Besides, in data set [4] (IC50 of RPE1 relative to that of A431), the “SI (selectivity index), A431” value was determined as 7.3. In addition, in data set [5] (Homo sapiens, MCF7, 72 h, read-out: IC50 ± SE, MCF7), the IC50 is 2.81 ± 0.26 µM. Moreover, the “SI (selectivity index), MCF7” value in data set [5] (IC50 of RPE1 relative to that of MCF7) is listed as 3.15. Also, the “EGFR HCT116 % Inhibition” value at EGFR [6] (Western blot at MTT-IC50) stood at 62.9%. In addition, the “EGFR HCT116 RQ (relative quantification)” value at EGFR [6] (Western blot at MTT-IC50, control RQ 4.0382) stood at 1.5. Besides, the “EGFR MCF7 % Inhibition” value at EGFR [7] (Western blot at MTT-IC50) stood at 85.6%. Moreover, the “EGFR MCF7 RQ (relative quantification)” value at EGFR [7] (Western blot at MTT-IC50, control RQ 4.226) is 0.61. Moreover, the “phase of cell cycle arrest” value in data set [8] (PI-flow cytometry) was “G1-phase”. Further, in data set [8] (at MTT-IC50 of the agent), the “DNA content (%) G0-G1” value is recorded as 55.28%, the “DNA content (%) G2/M” value is given as 3.59%, the “DNA content (%) Pre-G1” value was 44.28% and the “DNA content (%) S” value was found to be 41.13%. Moreover, in [9], the “Apoptosis (%) Early” value amounted to 2.29%, the “Apoptosis (%) Late” value was 28.58%, the “Apoptosis (%) Total” value worked out at 44.28% and the “Necrosis (%)” value worked out at 13.41%. The 50% inhibitory concentration (IC50) in [10] (Homo sapiens, HCT-116, 72 h, read-out: IC50 ± SE, HCT116) is 0.986 ± 0.08 µM. Moreover, the “SI (selectivity index), HCT116” value in [10] (IC50 of RPE1 relative to that of HCT116) stood at 8.96. In data set [11], the IC50 was 8.83 ± 0.68 µM. Also, in data set [12], the “SI = CC50/IC50” value was found to be 1.7. Further, the “VEGFR2 MCF7 % Inhibition” value at VEGFR-2 [13] (Western blot at MTT-IC50) is 59.5%. Moreover, the “VEGFR2 MCF7 RQ (relative quantification)” value on VEGFR-2 [13] (Western blot at MTT-IC50, control RQ 3.725) was found to be 1.51. For the same compound, at COX-2, half-maximal inhibition (IC50) required 2.25 µM and the “SI = IC50(COX-1)/IC50(COX-2)” value is 0.121.
